Counter-ions that a name gives are not always drawn. Like-named read-outs stand apart in the source and are kept apart here.
Test system: HIV-1 LTR promoter
Format: cell-based
[1] = Pharmakon 1600 library, 10 uM, 24 hours, FIG. 10
[2] = Pharmakon 1600 library, 10 uM, 24 hours, FIG. 12

| Compound | identified as variability enhancer (VE) in noise screen [1] | further results |
| --- | --- | --- |
| CN(Cc1cnc2nc(N)nc(N)c2n1)c1ccc(C(=O)N[C@@H](CCC(=O)O)C(=O)O)cc1 (racemic) [methotrexate(+/−)] | variability enhancers |  |
| COC(=O)C1=CCCN(C)C1 [Arecoline hydrobromide] | variability enhancers |  |
| COc1ccc(Cc2nccc3cc(OC)c(OC)cc23)cc1OC [Papaverine hydrochloride] |  | identified as variability suppressor (VS) in noise screen [2]: variability suppressors |
| CC(=O)O[C@H]1C(=O)[C@@]2(C)[C@H]([C@H](OC(=O)c3ccccc3)[C@]3(O)C[C@H](OC(=O)[C@H](O)[C@@H](NC(=O)c4ccccc4)c4ccccc4)C(C)=C1C3(C)C)[C@]1(OC(C)=O)CO[C@@H]1C[C@@H]2O [Taxol] | variability enhancers |  |
| S=c1nc[nH]c2nc[nH]c12 [V9, mercaptopurine] | variability enhancers |  |
| N=C(N)NCCN1CCCCCCC1 [V21, guanethidine sulfate] |  | identified as variability enhancer (VE) in noise screen: variability enhancers |
| CC(C)(C#N)c1cc(Cn2cncn2)cc(C(C)(C)C#N)c1 [V68, anastrozole] | variability enhancers |  |
| CS(=O)(=O)OCCCCOS(C)(=O)=O [V69, busulfan] | variability enhancers |  |
| Nc1nc2[nH]cc(CCc3ccc(C(=O)N[C@@H](CCC(=O)O)C(=O)O)cc3)c2c(=O)[nH]1 [V74, pemetrexed] | variability enhancers |  |
| Nc1ncnc2c1ncn2[C@@H]1O[C@H](COP(=O)(O)O)[C@@H](O)[C@H]1O [adenosine phosphate] |  | identified as variability suppressor (VS) in noise screen [2]: variability suppressors |
| CCCSc1ccc2nc(NC(=O)OC)[nH]c2c1 [albendazole] |  | identified as variability enhancer (VE) in noise screen: variability enhancers |
| Nc1c2ccccc2nc2ccccc12 [aminacrine] | variability enhancers |  |
| Cl.N=C(N)NCCC[C@H](N)C(=O)O [arginine hydrochloride] | variability enhancers |  |
| CN(C)CCCOc1nn(Cc2ccccc2)c2ccccc12 [benzydamine hydrochloride] |  | identified as variability suppressor (VS) in noise screen [2]: variability suppressors |
| Cc1ccc2c(Br)cc(Br)c(OC(=O)c3ccccc3)c2n1 [broxaldine] |  | identified as variability suppressor (VS) in noise screen [2]: variability suppressors |
| C[N+](C)(C)CC(O)CC(=O)[O-].Cl (centres unmarked) [carnitine hydrochloride] | variability enhancers |  |
| Nc1nc(Cl)nc2c1ncn2[C@@H]1O[C@H](CO)[C@@H](O)[C@@H]1F [clofarabine] | variability enhancers |  |
| C[C@@H]1C[C@@H]([C@H](O)CC2CC(=O)NC(=O)C2)C(=O)[C@@H](C)C1 [cycloheximide] |  | identified as variability suppressor (VS) in noise screen [2]: variability suppressors |
| Nc1ccn([C@@H]2O[C@H](CO)[C@@H](O)[C@@H]2O)c(=O)n1 [cytarabine, (β-D-arabinofuranosyl)cytosine] |  | noise deviation of VM hit in the screen (10 uM, 24 hours): +5 σ |

| Compound | identified as variability enhancer (VE) in noise screen [1] | further results |
| --- | --- | --- |
| COP(=O)(OC)OC=C(Cl)Cl [dichlorvos] |  | identified as variability suppressor (VS) in noise screen [2]: variability suppressors |
| C[C@H]1O[C@@H](O[C@H]2[C@@H](O)C[C@H](O[C@H]3[C@@H](O)C[C@H](O[C@H]4CC[C@@]5(C)[C@H](CC[C@@H]6[C@@H]5CC[C@]5(C)[C@@H](C7=CC(=O)OC7)CC[C@]65O)C4)O[C@@H]3C)O[C@@H]2C)C[C@H](O)[C@@H]1O [digitoxin] | variability enhancers |  |
| C[C@H]1O[C@@H](O[C@H]2[C@@H](O)C[C@H](O[C@H]3[C@@H](O)C[C@H](O[C@H]4CC[C@@]5(C)[C@H](CC[C@@H]6[C@@H]5C[C@@H](O)[C@]5(C)[C@@H](C7=CC(=O)OC7)CC[C@]65O)C4)O[C@@H]3C)O[C@@H]2C)C[C@H](O)[C@@H]1O [digoxin] |  | identified as variability enhancer (VE) in noise screen: variability enhancers |
| CC(CCc1ccc(O)cc1)NCCc1ccc(O)c(O)c1 (centres unmarked) [dobutamine hydrochloride] | variability enhancers |  |
| CCN1CC(CCN2CCOCC2)C(c2ccccc2)(c2ccccc2)C1=O (centres unmarked) [doxapram hydrochloride] | variability enhancers |  |
| C[C@@H](O)CN(CCN(C[C@@H](C)O)C[C@@H](C)O)C[C@@H](C)O [editol] | variability enhancers |  |
| CN1C[C@H](C(=O)N[C@]2(C)O[C@@]3(O)[C@@H]4CCCN4C(=O)[C@H](Cc4ccccc4)N3C2=O)C=C2c3cccc4[nH]cc(c34)C[C@H]21 [ergotamine tartrate] |  | identified as variability suppressor (VS) in noise screen [2]: variability suppressors |
| O=C1OC2(c3ccccc31)c1cc(I)c(O)c(I)c1Oc1c2cc(I)c(O)c1I [erythrosine sodium] | variability enhancers |  |
| COC(=O)Nc1nc2ccc(Sc3ccccc3)cc2[nH]1 [fenbendazole] | variability enhancers |  |
| N#Cc1nn(-c2c(Cl)cc(C(F)(F)F)cc2Cl)c(N)c1[S+]([O-])C(F)(F)F (centres unmarked) [fipmnil, fipronil] |  | identified as variability suppressor (VS) in noise screen [2]: variability suppressors |
| COC1=CC(=O)C[C@@H](C)[C@]12Oc1c(Cl)c(OC)cc(OC)c1C2=O [griseofulvin] | variability enhancers |  |
| CCCCCC(=O)O[C@]1(C(C)=O)CC[C@H]2[C@@H]3CCC4=CC(=O)CC[C@]4(C)[C@H]3CC[C@@]21C [hydroxyprogesterone caproate] |  | identified as variability suppressor (VS) in noise screen [2]: variability suppressors |
| CCc1c2c(nc3ccc(OC(=O)N4CCC(N5CCCCC5)CC4)cc13)-c1cc3c(c(=O)n1C2)COC(=O)[C@]3(O)CC [irinotecan hydrochloride] | variability enhancers |  |
| O=C(O)c1nn(Cc2ccc(Cl)cc2Cl)c2ccccc12 [lonidamine] | variability enhancers |  |
| CNCCCC12CCC(c3ccccc31)c1ccccc12 [maprotiline hydrochloride] |  | identified as variability suppressor (VS) in noise screen: variability suppressors |
| N[C@@H](Cc1ccc(N(CCCl)CCCl)cc1)C(=O)O [melphalan] | variability enhancers |  |
| CO[C@@]12[C@H](COC(N)=O)C3=C(C(=O)C(C)=C(N)C3=O)N1C[C@@H]1N[C@@H]12 [mitomycin c] | variability enhancers |  |
| CCN(CC)C(=O)c1cccnc1 [nikethamide] | variability enhancers |  |
| C[C@@H]1O[C@@H](O[C@H]2C[C@@H](O)[C@]3(CO)[C@H]4[C@H](O)C[C@]5(C)[C@@H](C6=CC(=O)OC6)CC[C@]5(O)[C@@H]4CC[C@]3(O)C2)[C@H](O)[C@H](O)[C@H]1O [ouabain] | variability enhancers |  |

| Compound | identified as variability enhancer (VE) in noise screen [1] | further results |
| --- | --- | --- |
| COC(=O)Nc1nc2ccc([S+]([O-])c3ccccc3)cc2[nH]1 (centres unmarked) [oxfendazole] | variability enhancers |  |
| [H]/N=C(/N)N/C(=N/[H])NCCc1ccccc1 [phenformin hydrochloride] |  | identified as variability suppressor (VS) in noise screen: variability suppressors |
| c1ccc2c(c1)Nc1ccccc1S2 [phenothiazine] |  | identified as variability suppressor (VS) in noise screen [2]: variability suppressors |
| CC(=O)[O-].[Hg+][c]1ccccc1 [phenylmercuric acetate] |  | identified as variability enhancer (VE) in noise screen: variability enhancers |
| [O-][n+]1ccccc1[S-].[O-][n+]1ccccc1[S-].[Zn+2] [pyrithione zinc] |  | identified as variability suppressor (VS) in noise screen: variability suppressors |
| Cc1cc2nc3c(=O)[nH]c(=O)nc-3n(C[C@H](O)[C@H](O)[C@H](O)COP(=O)([O-])O)c2cc1C.[Na+] [riboflavin 5-phosphate sodium] | variability enhancers |  |
| Cc1cc2nc3c(=O)[nH]c(=O)nc-3n(C[C@H](O)[C@H](O)[C@H](O)CO)c2cc1C [riboflavin] |  | identified as variability enhancer (VE) in noise screen: variability enhancers |
| CO[C@H]1/C=C/O[C@@]2(C)Oc3c(C)c(O)c4c(O)c(c5c(nc6cc(C)ccn65)c4c3C2=O)NC(=O)/C(C)=C\C=C\[C@H](C)[C@H](O)[C@@H](C)[C@@H](O)[C@@H](C)[C@H](OC(C)=O)[C@@H]1C [rifaximin] | variability enhancers |  |
| NCCS(=O)(=O)O [taurine] | variability enhancers |  |
| c1ccc(C2CN3CCSC3=N2)cc1 (centres unmarked) [tetramizole hydrochloride] |  | identified as variability enhancer (VE) in noise screen: variability enhancers |
| Nc1nc2nc[nH]c2c(=S)[nH]1 [thioguanine] |  | identified as variability enhancer (VE) in noise screen: variability enhancers |
| C=C(NC(=O)C(=C)NC(=O)c1csc(C2=N[C@@H]3c4csc(n4)[C@H]4NC(=O)c5csc(n5)[C@H]([C@](C)(O)[C@@H](C)O)NC(=O)[C@H]5CSC(=N5)/C(=C/C)NC(=O)[C@H]([C@@H](C)O)NC(=O)c5csc(n5)[C@]3(CC2)NC(=O)[C@H](C)NC(=O)C(=C)NC(=O)[C@H](C)NC(=O)[C@H]([C@@H](C)CC)N[C@@H]2C=Cc3c([C@H](C)O)cc(nc3[C@H]2O)C(=O)O[C@@H]4C)n1)C(N)=O [thiostrepton] | variability enhancers |  |
| CN(C)C(=S)SSC(=S)N(C)C [thiram] | variability enhancers |  |
| COP(=O)(OC)C(O)C(Cl)(Cl)Cl (centres unmarked) [trichlorfon] |  | identified as variability suppressor (VS) in noise screen [2]: variability suppressors |
| CC[C@]1(O)C[C@H]2CN(CCc3c([nH]c4ccccc34)[C@@](C(=O)OC)(c3cc4c(cc3OC)N(C=O)[C@H]3[C@@](O)(C(=O)OC)[C@H](OC(C)=O)[C@]5(CC)C=CCN6CC[C@]43[C@@H]65)C2)C1 [vincristine sulfate] | variability enhancers |  |
| CCC1=C[C@@H]2CN(C1)Cc1c([nH]c3ccccc13)[C@@](C(=O)OC)(c1cc3c(cc1OC)N(C)[C@H]1[C@@](O)(C(=O)OC)[C@H](OC(C)=O)[C@]4(CC)C=CCN5CC[C@]31[C@@H]54)C2 [vinorelbine] | variability enhancers |  |
| Nc1ccn([C@H]2CC[C@@H](CO)O2)c(=O)n1 [zalcitabine] | variability enhancers |  |
| arsenic trioxide |  | identified as variability suppressor (VS) in noise screen [2]: variability suppressors |
